Reference: patent publication US8952024B2, “Herbicidal pyrimidone derivatives” (E I du Pont de Nemours and Company, priority 2009, dated 2015)

Experiments:
Assay type in all cases: in vivo
[1] = system: barnyardgrass (Echinochloa crus-galli); assay: Test A pre-/postemergence plant response
Outline: (§1)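 Approximately ten days after concurrent pre- and postemergence spraying in a greenhouse, plants were compared with untreated controls and rated visually for injury, 0 = no effect to 100 = complete control. Preemergence spray was directed onto loam/sand soil; postemergence targeted 1–2 leaf seedlings.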

[2] = system: pigweed (Amaranthus retroflexus); assay: Test A pre-/postemergence plant response
Outline: as §1

[3] = system: morningglory (Ipomoea coccinea); assay: Test B pre-/postemergence plant response
Outline: (§2)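 Visual ratings on a 0–100 scale (100 = complete control) were made versus untreated controls 13–15 days after treatment in a greenhouse. Compounds in surfactant-containing non-phytotoxic solvent were applied preemergence to seeds in loam–sand blend or postemergence to 1- to 4-leaf plants (2–18 cm).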

[4] = system: wheat (Triticum aestivum); assay: Test B pre-/postemergence plant response
Outline: as §2

[5] = system: goosegrass (Eleusine indica); assay: Test B pre-/postemergence plant response
Outline: as §2

[6] = system: Surinam grass (Brachiaria decumbens); assay: Test B pre-/postemergence plant response
Outline: as §2

[7] = system: woolly cupgrass (Eriochloa villosa); assay: Test B pre-/postemergence plant response
Outline: as §2

[8] = system: large crabgrass (Digitaria sanguinalis); assay: Test B pre-/postemergence plant response
Outline: as §2

[9] = system: velvetleaf (Abutilon theophrasti); assay: Test B pre-/postemergence plant response
Outline: as §2

[10] = system: blackgrass (Alopecurus myosuroides); assay: Test B pre-/postemergence plant response
Outline: as §2

[11] = system: yellow nutsedge (Cyperus esculentus); assay: Test B pre-/postemergence plant response
Outline: as §2

[12] = system: Italian ryegrass (Lolium multiflorum); assay: Test B pre-/postemergence plant response
Outline: as §2

[13] = system: downy bromegrass (Bromus tectorum); assay: Test B pre-/postemergence plant response
Outline: as §2

[14] = Postemergence, 125 g ai/ha, visual injury, 0 to 100 scale (0 no effect, 100 complete control), approx. ten days
[15] = Postemergence, 500 g ai/ha, 0 to 100 scale, 0 = no effect, 100 = complete control, approx. ten days
[16] = Preemergence, 125 g ai/ha, 0 to 100 scale, 0 = no effect, 100 = complete control
[17] = Preemergence, 500 g ai/ha, visual injury, 0 to 100 scale (0 no effect, 100 complete control), approx. ten days
[18] = 250 g ai/ha, Preemergence, 0 to 100 scale
[19] = Postemergence, 31 g ai/ha, scale 0 to 100 (0 no effect, 100 complete control)
[20] = Postemergence, 62 g ai/ha, scale 0 (no effect) to 100 (complete control), 13 to 15 days
[21] = Postemergence, 125 g ai/ha, visual rating after 13 to 15 days, scale 0 (no effect) to 100 (complete control)
[22] = Postemergence, 250 g ai/ha, scale 0 to 100
[23] = Preemergence, 31 g ai/ha, scale 0 to 100 (0 no effect, 100 complete control)
[24] = Preemergence, 62 g ai/ha, scale 0 to 100, 0 no effect, 100 complete control
[25] = Preemergence, 125 g ai/ha, 0 to 100 scale

2-(3,5-difluorophenyl)-5-[(2-hydroxy-4-oxobicyclo[3.2.1]oct-2-en-3-yl)carbonyl]-3-(2-methoxyethyl)-4(3H)-pyrimidinone [Compound 243]
Barnyardgrass plant response rating [1, 14]: 80 | Plant response rating, Barnyardgrass [1, 15]: 100 | Plant response rating, Barnyardgrass [1, 16]: 0 | Plant response rating, Barnyardgrass [1, 17]: 100 | Pigweed plant response rating [2, 14]: 100 | Plant response rating, Pigweed [2, 15]: 100 | Plant response rating, Pigweed [2, 16]: 50 | Plant response rating, Pigweed [2, 17]: 100 | Plant response rating, Morningglory [3, 18]: 98 | Plant response rating, Morningglory [3, 19]: 45 | Plant response rating, Morningglory [3, 20]: 45 | Plant response rating, Morningglory [3, 21]: 70 | Morningglory plant response rating [3, 22]: 75 | Plant response rating, Morningglory [3, 23]: 0 | Plant response rating, Morningglory [3, 24]: 40 | Morningglory plant response rating [3, 25]: 70 | Plant response rating, Wheat [4, 18]: 5 | Plant response rating, Wheat [4, 19]: 0 | Plant response rating, Wheat [4, 20]: 5 | Plant response rating, Wheat [4, 21]: 30 | Wheat plant response rating [4, 22]: 30 | Plant response rating, Wheat [4, 23]: 0 | Plant response rating, Wheat [4, 24]: 0 | Wheat plant response rating [4, 25]: 0 | Plant response rating, Goosegrass [5, 18]: 100 | Plant response rating, Goosegrass [5, 19]: 60 | Plant response rating, Goosegrass [5, 20]: 85 | Plant response rating, Goosegrass [5, 21]: 90 | Goosegrass plant response rating [5, 22]: 100 | Plant response rating, Goosegrass [5, 23]: 75 | Goosegrass plant response rating [5, 25]: 100 | Plant response rating, Surinam Grass [6, 18]: 95 | Plant response rating, Surinam Grass [6, 19]: 55 | Plant response rating, Surinam Grass [6, 20]: 65 | Plant response rating, Surinam Grass [6, 21]: 75 | Surinam Grass plant response rating [6, 22]: 85 | Plant response rating, Surinam Grass [6, 23]: 0 | Plant response rating, Surinam Grass [6, 24]: 45 | Surinam Grass plant response rating [6, 25]: 95 | Plant response rating, Cupgrass, Woolly [7, 18]: 60 | Plant response rating, Cupgrass, Woolly [7, 19]: 70 | Plant response rating, Cupgrass, Woolly [7, 20]: 75 | Plant response rating, Cupgrass, Woolly [7, 21]: 80 | Cupgrass, Woolly plant response rating [7, 22]: 85 | Plant response rating, Cupgrass, Woolly [7, 23]: 0 | Plant response rating, Cupgrass, Woolly [7, 24]: 15 | Cupgrass, Woolly plant response rating [7, 25]: 45 | Plant response rating, Crabgrass, Large [8, 18]: 100 | Plant response rating, Crabgrass, Large [8, 19]: 70 | Plant response rating, Crabgrass, Large [8, 20]: 80 | Plant response rating, Crabgrass, Large [8, 21]: 85 | Crabgrass, Large plant response rating [8, 22]: 95 | Plant response rating, Crabgrass, Large [8, 23]: 0 | Plant response rating, Crabgrass, Large [8, 24]: 90 | Crabgrass, Large plant response rating [8, 25]: 100 | Plant response rating, Velvetleaf [9, 18]: 100 | Plant response rating, Velvetleaf [9, 19]: 85 | Plant response rating, Velvetleaf [9, 20]: 85 | Plant response rating, Velvetleaf [9, 21]: 90 | Velvetleaf plant response rating [9, 22]: 98 | Plant response rating, Velvetleaf [9, 23]: 98 | Plant response rating, Velvetleaf [9, 24]: 100 | Velvetleaf plant response rating [9, 25]: 100 | Plant response rating, Blackgrass [10, 18]: 40 | Plant response rating, Blackgrass [10, 19]: 0 | Plant response rating, Blackgrass [10, 20]: 0 | Plant response rating, Blackgrass [10, 21]: 40 | Blackgrass plant response rating [10, 22]: 70 | Plant response rating, Blackgrass [10, 23]: 0 | Plant response rating, Blackgrass [10, 24]: 0 | Blackgrass plant response rating [10, 25]: 20 | Plant response rating, Nutsedge, Yellow [11, 18]: 95 | Plant response rating, Nutsedge, Yellow [11, 19]: 20 | Plant response rating, Nutsedge, Yellow [11, 20]: 25 | Plant response rating, Nutsedge, Yellow [11, 21]: 60 | Nutsedge, Yellow plant response rating [11, 22]: 70 | Plant response rating, Nutsedge, Yellow [11, 23]: 0 | Plant response rating, Nutsedge, Yellow [11, 24]: 45 | Nutsedge, Yellow plant response rating [11, 25]: 80 | Plant response rating, Ryegrass, Italian [12, 18]: 40 | Plant response rating, Ryegrass, Italian [12, 19]: 0 | Plant response rating, Ryegrass, Italian [12, 20]: 0 | Plant response rating, Ryegrass, Italian [12, 21]: 30 | Ryegrass, Italian plant response rating [12, 22]: 45 | Plant response rating, Ryegrass, Italian [12, 23]: 0 | Plant response rating, Ryegrass, Italian [12, 24]: 0 | Ryegrass, Italian plant response rating [12, 25]: 0 | Plant response rating, Bromegrass, Downy [13, 18]: 10 | Plant response rating, Bromegrass, Downy [13, 19]: 5 | Plant response rating, Bromegrass, Downy [13, 20]: 30 | Plant response rating, Bromegrass, Downy [13, 21]: 40 | Bromegrass, Downy plant response rating [13, 22]: 50 | Plant response rating, Bromegrass, Downy [13, 23]: 0 | Plant response rating, Bromegrass, Downy [13, 24]: 0 | Bromegrass, Downy plant response rating [13, 25]: 5
